Measured values from patent US20250059164A1, “IRAK DEGRADERS AND USES THEREOF” (Kymera Therapeutics, Inc., priority 2023, published 2025).

biological target: T1, IRAK4 (Homo sapiens, UniProt Q9NWZ3); test: IRAK4 MSD degradation in OCI-LY10; type: cell-based; conditions: OCI-LY10 cells, 24 hrs, Meso Scale Discovery
T1 construct: endogenous in cells; host or cells: OCI-LY10
T1 sequence (Q9NWZ3 1-460): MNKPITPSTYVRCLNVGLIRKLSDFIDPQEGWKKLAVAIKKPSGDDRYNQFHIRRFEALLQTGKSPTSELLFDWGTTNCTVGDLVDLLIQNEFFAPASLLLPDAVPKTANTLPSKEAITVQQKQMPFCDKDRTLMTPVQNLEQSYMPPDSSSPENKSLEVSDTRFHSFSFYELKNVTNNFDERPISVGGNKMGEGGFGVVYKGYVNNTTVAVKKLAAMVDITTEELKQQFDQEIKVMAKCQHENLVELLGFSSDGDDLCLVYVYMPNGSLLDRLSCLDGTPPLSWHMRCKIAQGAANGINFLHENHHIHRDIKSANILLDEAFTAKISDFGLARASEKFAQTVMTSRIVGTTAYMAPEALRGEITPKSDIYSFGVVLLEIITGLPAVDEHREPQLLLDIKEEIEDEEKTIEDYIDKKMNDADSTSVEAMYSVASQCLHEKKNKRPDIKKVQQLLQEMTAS
Protocol: Degradation of IRAK4 in OCI-LY10 was quantitatively measured using Meso Scale Discovery technology. […] Compounds were then added to the assay plates with a final top concentration of 1 to 10 μM in a 1:3 dilution series with total of 8 doses. The assay plates were then incubated for 4 to 24 hours at 37° C. under 5% CO2. […] To prepare MSD assay plates (Meso Scale Discovery Catalog number L15XA-3), the plates were coated with 2 μg/mL capture antibody (mouse Anti-IRAK4 antibody [2H9], ab119942) in PBS, at 40 μL/well. […] Cell lysates were then added to MSD assay plates and the plates were incubated at room temperature for 1 hour. The plates were then washed 3 times with 150 μL/well TBST buffer and 25 μL/well primary detection antibody (rabbit Anti-IRAK4 antibody [Y279], from Abcam. Catalog number ab32511, 1 μg/mL). The assay plates were then incubated at room temperature for 1 hour, washed 3 times with 150 μL/well TBST buffer and 25 μL/well secondary detection antibody, SULFO-TAG anti-rabbit antibody were added (anti-rabbit antibody from Meso Scale Discovery, Catalog number R32AB-1, 1 μg/mL). The assay plates were then incubated at room temperature for 1 hour, washed 3 times with 150 μL/well TBST buffer, and 150 μL/well MSD reading buffer (Meso Scale Discovery catalog number R92TC-2) was added. The plates were then analyzed by a MSD reader (Meso Scale Discovery, Model Quick Plex SQ 120). The data was then analyzed by software Prism 7.0 from GraphPad and the dose-depended IRAK4 degradation were fit using a three-parameter logistic equation to calculate DC50.
The letter codes for IRAK4 DC50 include: A (<0.01 μM); B (0.01 to <0.1 μM); C (0.1 to 0.2 μM); D (>0.2 μM) and E (not tested).

Row | SMILES | DC50 [nM]
1 | CN(C[C@H]1CC[C@H](c2cc3cc(NC(=O)c4cncc(C(F)(F)F)n4)ccn3n2)CC1)[C@H]1CCN(c2cccc3c2n(C)c(=O)n3C2CCC(=O)NC2=O)C[C@H]1F (single isomer, unassigned) [I-212] | 10 to 100
2 | Cn1c(=O)n([C@@H]2CCC(=O)NC2=O)c2cccc(N3CCC4(CCN(C[C@H]5CC[C@H](n6cc7cc(NC(=O)c8cncc(C#N)c8)c(C(C)(C)O)cc7n6)CC5)CC4(F)F)CC3)c21 (single isomer, unassigned) [I-224] | < 10
3 | Cn1c(=O)n([C@H]2CCC(=O)NC2=O)c2cccc(N3CCC4(CCN(C[C@H]5CC[C@H](n6cc7cc(NC(=O)c8cncc(C#N)c8)c(C(C)(C)O)cc7n6)CC5)CC4(F)F)CC3)c21 (single isomer, unassigned) [I-225] | < 10
4 | Cn1nc([C@@H]2CCC(=O)NC2=O)c2cccc([C@@H]3CCN(C[C@H]4CC[C@H](n5cc6cc(NC(=O)c7cncc(C#N)c7)c(C(C)(C)O)cc6n5)CC4)CC3(F)F)c21 (single isomer, unassigned) [I-230] | < 10
5 | Cn1c(=O)n([C@H]2CCC(=O)NC2=O)c2ccc(F)c([C@@H]3CCN(C[C@H]4CC[C@H](n5cc6cc(NC(=O)c7cncc(C#N)c7)c(C(C)(C)O)cc6n5)CC4)CC3(F)F)c21 (single isomer, unassigned) [I-232] | < 10
6 | COc1ccc2c(c1N1CC3(CCN(C[C@H]4CC[C@H](n5cc6cc(NC(=O)c7cncc(C#N)c7)c(C(C)(C)O)cc6n5)CC4)CC3(F)F)C1)n(C)c(=O)n2[C@H]1CCC(=O)NC1=O (single isomer, unassigned) [I-234] | < 10
7 | COc1ccc2c(c1N1CC3(CCN(C[C@H]4CC[C@H](n5cc6cc(NC(=O)c7cncc(C#N)c7)c(C(C)(C)O)cc6n5)CC4)CC3(F)F)C1)n(C)c(=O)n2[C@@H]1CCC(=O)NC1=O (single isomer, unassigned) [I-235] | < 10
8 | Cn1c(=O)n([C@H]2CCC(=O)NC2=O)c2cccc([C@@H]3CCN(C[C@H]4CC[C@H](c5nc6cc(C(C)(C)O)c(NC(=O)c7cncc(C#N)c7)cc6s5)CC4)C[C@H]3F)c21 (single isomer, unassigned) [I-236] | < 10
9 | Cn1c(=O)n([C@@H]2CCC(=O)NC2=O)c2cccc([C@@H]3CCN(C[C@H]4CC[C@H](c5nc6cc(C(C)(C)O)c(NC(=O)c7cncc(C#N)c7)cc6s5)CC4)C[C@H]3F)c21 (single isomer, unassigned) [I-237] | < 10
10 | COc1cc2nn([C@H]3CC[C@H](CN4CC[C@@H](c5cccc6c5c(C)nn6C5CCC(=O)NC5=O)[C@H](F)C4)CC3)cc2cc1NC(=O)c1cncc(C#N)c1 (single isomer, unassigned) [I-265] | < 10
11 | CN(C[C@H]1CC[C@H](c2cn3cc(NC(=O)c4cncc(C(F)(F)F)n4)ccc3n2)CC1)[C@H]1CCN(c2cccc3c2n(C)c(=O)n3C2CCC(=O)NC2=O)C[C@H]1F (single isomer, unassigned) [I-285] | < 10
12 | COc1ccc2c(c1N1CC[C@H](N(C)C[C@H]3CC[C@H](n4cc(NC(=O)c5cnn6cccnc56)c(C(F)F)n4)CC3)C(F)(F)C1)n(C)c(=O)n2C1CCC(=O)NC1=O (single isomer, unassigned) [I-289] | < 10
13 | CN(C[C@H]1CC[C@H](c2cc3cc(NC(=O)c4cncc(C(F)(F)F)n4)ccn3n2)CC1)[C@@H]1CCN(c2cccc3c2n(C)c(=O)n3C2CCC(=O)NC2=O)C[C@H]1F (single isomer, unassigned) [I-291] | > 200
14 | CN(C[C@H]1CC[C@H](c2cc3cc(NC(=O)c4cncc(C(F)(F)F)n4)ccn3n2)CC1)[C@H]1CCN(c2cccc3c2n(C)c(=O)n3C2CCC(=O)NC2=O)C[C@@H]1F (single isomer, unassigned) [I-292] | 10 to 100
15 | CN(C[C@H]1CC[C@H](c2nc3cc(C(C)(C)O)c(NC(=O)c4cncc(C(F)(F)F)n4)cc3o2)CC1)[C@H]1CCN(c2cccc3c2n(C)c(=O)n3C2CCC(=O)NC2=O)C[C@@H]1F (single isomer, unassigned) [I-298] | < 10
16 | CN(C[C@H]1CC[C@H](c2nc3cc(C(C)(C)O)c(NC(=O)c4cncc(C(F)(F)F)n4)cc3o2)CC1)[C@H]1CCN(c2cccc3c2n(C)c(=O)n3C2CCC(=O)NC2=O)C[C@H]1F (single isomer, unassigned) [I-299] | < 10

Row | SMILES | DC50 [nM]
17 | CN(C[C@H]1CC[C@H](c2nc3cc(C(C)(C)O)c(NC(=O)c4cncc(C(F)(F)F)n4)cc3s2)CC1)[C@@H]1CCN(c2cccc3c2n(C)c(=O)n3C2CCC(=O)NC2=O)C[C@H]1F (single isomer, unassigned) [I-300] | < 10
18 | Cn1c(=O)n(C2CCC(=O)NC2=O)c2cccc(C#CCN3CCN(C[C@H]4CC[C@H](n5cc(NC(=O)c6cnn7ccc(N8C[C@H]9C[C@@H]8CO9)nc67)c(C(F)F)n5)CC4)C[C@@H]3C(F)(F)F)c21 (single isomer, unassigned) [I-303] | 10 to 100
19 | COc1cc2nc([C@H]3CC[C@H](CN(C)[C@@H]4CCN(c5cccc6c5n(C)c(=O)n6C5CCC(=O)NC5=O)C[C@H]4F)CC3)cn2cc1NC(=O)c1cncc(C(F)(F)F)n1 (single isomer, unassigned) [I-317] | < 10
20 | COc1cc2nc([C@H]3CC[C@H](CN(C)[C@H]4CCN(c5cccc6c5n(C)c(=O)n6C5CCC(=O)NC5=O)C[C@@H]4F)CC3)cn2cc1NC(=O)c1cncc(C(F)(F)F)n1 (single isomer, unassigned) [I-318] | < 10
21 | Cn1c(=O)n(C2CCC(=O)NC2=O)c2cccc(N3CCN(C[C@H]4CC[C@H](n5cc6cc(NC(=O)c7cncc(C(F)(F)F)n7)ccc6n5)CC4)C[C@H]3C(F)(F)F)c21 (single isomer, unassigned) [I-325] | 10 to 100
22 | Cn1c(=O)n(C2CCC(=O)NC2=O)c2cccc([C@@H]3CCN(C[C@H]4CC[C@H](c5nc6cc(C(C)(C)O)c(NC(=O)c7cncc(C(F)(F)F)n7)cc6o5)CC4)CC3(F)F)c21 (single isomer, unassigned) [I-327] | < 10
23 | Cn1c(=O)n(C2CCC(=O)NC2=O)c2cccc([C@H]3CCN(C[C@H]4CC[C@H](c5nc6cc(C(C)(C)O)c(NC(=O)c7cncc(C(F)(F)F)n7)cc6o5)CC4)CC3(F)F)c21 (single isomer, unassigned) [I-328] | 10 to 100
24 | COc1cc2nc([C@H]3CC[C@H](CN(C)[C@H]4CCN(c5cccc6c5n(C)c(=O)n6C5CCC(=O)NC5=O)C[C@H]4F)CC3)cn2cc1NC(=O)c1cncc(C(F)(F)F)n1 (single isomer, unassigned) [I-333] | < 10
25 | CN(C[C@H]1CC[C@H](c2cn3cc(NC(=O)c4cncc(C(F)(F)F)n4)c(C(C)(C)O)cc3n2)CC1)[C@@H]1CCN(c2cccc3c2n(C)c(=O)n3C2CCC(=O)NC2=O)C[C@H]1F (single isomer, unassigned) [I-334] | < 10
26 | CN(C[C@H]1CC[C@H](c2cn3cc(NC(=O)c4cncc(C(F)(F)F)n4)c(C(C)(C)O)cc3n2)CC1)[C@H]1CCN(c2cccc3c2n(C)c(=O)n3C2CCC(=O)NC2=O)C[C@@H]1F (single isomer, unassigned) [I-335] | < 10
27 | CN(C[C@H]1CC[C@H](c2cn3cc(NC(=O)c4cncc(C(F)(F)F)n4)c(C(C)(C)O)cc3n2)CC1)[C@H]1CCN(c2cccc3c2n(C)c(=O)n3C2CCC(=O)NC2=O)C[C@H]1F (single isomer, unassigned) [I-336] | < 10
28 | Cc1nn(C2CCC(=O)NC2=O)c2cccc([C@H]3CCN(C[C@H]4CC[C@H](n5cc6cc(NC(=O)c7cncc(C(F)(F)F)n7)ncc6n5)CC4)C[C@@H]3F)c12 (single isomer, unassigned) [I-341] | 10 to 100
29 | CN(C[C@H]1CC[C@H](c2cn3cc(NC(=O)c4cncc(C(F)(F)F)n4)c(C(C)(C)O)cc3n2)CC1)[C@@H]1CCN(c2cccc3c2n(C)c(=O)n3C2CCC(=O)NC2=O)C[C@@H]1F (single isomer, unassigned) [I-344] | < 10
30 | Cn1c(=O)n(C2CCC(=O)NC2=O)c2ccc([C@@H]3CCN(C[C@H]4CC[C@H](n5cc6cc(NC(=O)c7cncc(C(F)(F)F)n7)ccc6n5)CC4)C[C@H]3F)cc21 (single isomer, unassigned) [I-349] | > 200
31 | Cn1c(=O)n(C2CCC(=O)NC2=O)c2ccc([C@H]3CCN(C[C@H]4CC[C@H](n5cc6cc(NC(=O)c7cncc(C(F)(F)F)n7)ccc6n5)CC4)C[C@@H]3F)cc21 (single isomer, unassigned) [I-351] | > 200
